Laboratory results as given in patent publication US20120289501A1, “Benzene-fused 6-membered oxygen-containing heterocyclic derivatives of bicyclic heteroaryls” (NOVARTIS AG, priority 2009, published 2012).

Columns and labels:
COT1 = COT1 (Homo sapiens, UniProt P41279); assay: Enzymatic kinase assay (filter-binding / flashplate, 33P incorporation); assay type: biochemical; conditions: enzymatic kinase selectivity
Procedure: (§1) Two methods were used to analyze phosphorylated peptides and proteins produced by the listed tyrosine and serine/threonine-specific protein kinases: either using a filter-binding assay (FB), or using a flashplate assay (FP). The activities of protein kinases were assayed in the presence or absence of inhibitors, by measuring the incorporation of ^33P from [γ^33P]ATP into appropriate substrates.
(§2) 96-well polypropylene microplates were used to assay the activity in the FB mode. To determine the inhibitory activity of compounds 10 μL of compound dilutions were pipetted into 96-well plates followed by the addition of 10 μL of assay mix and 10 μL of individual enzymes. With the addition of the enzymes the reactions were initiated and continued at RT. The reactions were stopped by the addition of 50 μL of a 125 mM EDTA solution pH 8.0. The final concentration of DMSO in the enzyme assays was 1%.
(§3) Flashplates are available as 96-well standard (STFPs) or as streptavidin-(SAFPs) or nickel coated FPs (NiFPs) from Perkin Elmer. STFPs are 96-well polystyrene microplates in which the interior of each well is permanently coated with a thin layer of polystyrene-based scintillant. Streptavidin flashplates (SAFP) are 96 or 384-well STFPs coated with streptavidin. SAFPs are suitable for a wide variety of assay applications which utilize biotinylated capture molecules. NiFP or nickel chelate flashplates are 96- or 384-well STFPs coated with nickel chelate. NiFPs are designed for in-plate, radiometric assays which utilize 4- or 6-histidine tagged proteins and peptides.
(§4) All kinase assays were performed in STFPs for 60 mins at RT and stopped with 50 μL of 0.5% H3PO4 except PKA which were carried out in polypropylene 96- and 384-well plates, respectively. PKA assays were stopped with 50 μL of 125 mM EDTA (pH 8.0) and 50 μL were transferred to either SAFPs or NIFPs to capture the biotinylated or histidine tagged peptides phosphorylated by PKA (SAFP) or by NiFPs. All wells were then washed three times with 200 μL of 0.5% H3PO4 and the plates were dried at room temperature. The plates were sealed and counted in a microplate scintillation counter (TopCount NXT, TopCount NXT HTS). The final concentration of DMSO in the enzyme assays was 1%.

FGFR-4 = FGFR-4 (Homo sapiens, UniProt P22455); assay: as above; assay type: biochemical; conditions: enzymatic kinase selectivity
Chain of FGFR-4 (P22455 22-802, species assumed): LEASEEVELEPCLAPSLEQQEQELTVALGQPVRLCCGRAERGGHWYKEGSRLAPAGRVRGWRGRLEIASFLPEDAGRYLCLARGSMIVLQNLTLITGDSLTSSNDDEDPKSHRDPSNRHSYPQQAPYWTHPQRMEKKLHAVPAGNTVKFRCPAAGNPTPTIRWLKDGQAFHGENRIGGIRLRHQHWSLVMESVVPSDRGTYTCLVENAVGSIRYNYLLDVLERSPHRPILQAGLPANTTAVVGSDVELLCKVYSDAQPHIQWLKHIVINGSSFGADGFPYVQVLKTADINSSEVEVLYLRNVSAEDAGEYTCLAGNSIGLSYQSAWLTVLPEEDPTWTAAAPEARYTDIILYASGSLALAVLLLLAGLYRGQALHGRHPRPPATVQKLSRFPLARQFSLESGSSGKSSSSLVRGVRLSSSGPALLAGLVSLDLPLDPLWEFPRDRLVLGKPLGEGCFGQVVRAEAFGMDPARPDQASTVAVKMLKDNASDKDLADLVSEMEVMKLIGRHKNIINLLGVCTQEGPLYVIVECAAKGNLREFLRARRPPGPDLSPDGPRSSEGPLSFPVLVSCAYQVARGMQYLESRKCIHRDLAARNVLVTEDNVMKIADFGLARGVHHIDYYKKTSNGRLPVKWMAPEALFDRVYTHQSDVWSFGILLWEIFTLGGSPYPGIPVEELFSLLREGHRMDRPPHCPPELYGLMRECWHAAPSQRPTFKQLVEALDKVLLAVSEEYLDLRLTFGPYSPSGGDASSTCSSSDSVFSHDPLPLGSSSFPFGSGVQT
Procedure: as §1, §2, §3, §4

P38a = P38a (Homo sapiens, UniProt Q16539); assay: as above; assay type: biochemical; conditions: enzymatic kinase selectivity
Chain of P38a (Q16539 whole entry): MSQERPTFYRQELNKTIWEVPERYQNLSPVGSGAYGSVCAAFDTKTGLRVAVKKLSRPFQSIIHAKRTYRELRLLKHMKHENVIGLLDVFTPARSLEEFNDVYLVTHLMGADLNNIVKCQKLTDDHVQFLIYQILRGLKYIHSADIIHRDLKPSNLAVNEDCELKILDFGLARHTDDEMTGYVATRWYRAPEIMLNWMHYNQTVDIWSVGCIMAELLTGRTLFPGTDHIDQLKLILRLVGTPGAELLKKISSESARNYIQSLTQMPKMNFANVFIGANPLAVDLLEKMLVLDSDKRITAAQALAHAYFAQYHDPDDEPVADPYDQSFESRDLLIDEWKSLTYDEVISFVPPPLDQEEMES
Procedure: as §1, §2, §3, §4

IGF1R = IGF1R (Homo sapiens, UniProt P08069); assay: Cellular IGF-1R assay: inhibition of IGF1R phosphorylation in transduced Hek293 cells, capture ELISA (MSD); assay type: cell-based; set-up: Hek293 cells transduced with the corresponding receptors; expressed in transfected cells; host or cells: Hek293 (Hek293-IGF1R)
Chain of IGF1R (P08069 31-1367): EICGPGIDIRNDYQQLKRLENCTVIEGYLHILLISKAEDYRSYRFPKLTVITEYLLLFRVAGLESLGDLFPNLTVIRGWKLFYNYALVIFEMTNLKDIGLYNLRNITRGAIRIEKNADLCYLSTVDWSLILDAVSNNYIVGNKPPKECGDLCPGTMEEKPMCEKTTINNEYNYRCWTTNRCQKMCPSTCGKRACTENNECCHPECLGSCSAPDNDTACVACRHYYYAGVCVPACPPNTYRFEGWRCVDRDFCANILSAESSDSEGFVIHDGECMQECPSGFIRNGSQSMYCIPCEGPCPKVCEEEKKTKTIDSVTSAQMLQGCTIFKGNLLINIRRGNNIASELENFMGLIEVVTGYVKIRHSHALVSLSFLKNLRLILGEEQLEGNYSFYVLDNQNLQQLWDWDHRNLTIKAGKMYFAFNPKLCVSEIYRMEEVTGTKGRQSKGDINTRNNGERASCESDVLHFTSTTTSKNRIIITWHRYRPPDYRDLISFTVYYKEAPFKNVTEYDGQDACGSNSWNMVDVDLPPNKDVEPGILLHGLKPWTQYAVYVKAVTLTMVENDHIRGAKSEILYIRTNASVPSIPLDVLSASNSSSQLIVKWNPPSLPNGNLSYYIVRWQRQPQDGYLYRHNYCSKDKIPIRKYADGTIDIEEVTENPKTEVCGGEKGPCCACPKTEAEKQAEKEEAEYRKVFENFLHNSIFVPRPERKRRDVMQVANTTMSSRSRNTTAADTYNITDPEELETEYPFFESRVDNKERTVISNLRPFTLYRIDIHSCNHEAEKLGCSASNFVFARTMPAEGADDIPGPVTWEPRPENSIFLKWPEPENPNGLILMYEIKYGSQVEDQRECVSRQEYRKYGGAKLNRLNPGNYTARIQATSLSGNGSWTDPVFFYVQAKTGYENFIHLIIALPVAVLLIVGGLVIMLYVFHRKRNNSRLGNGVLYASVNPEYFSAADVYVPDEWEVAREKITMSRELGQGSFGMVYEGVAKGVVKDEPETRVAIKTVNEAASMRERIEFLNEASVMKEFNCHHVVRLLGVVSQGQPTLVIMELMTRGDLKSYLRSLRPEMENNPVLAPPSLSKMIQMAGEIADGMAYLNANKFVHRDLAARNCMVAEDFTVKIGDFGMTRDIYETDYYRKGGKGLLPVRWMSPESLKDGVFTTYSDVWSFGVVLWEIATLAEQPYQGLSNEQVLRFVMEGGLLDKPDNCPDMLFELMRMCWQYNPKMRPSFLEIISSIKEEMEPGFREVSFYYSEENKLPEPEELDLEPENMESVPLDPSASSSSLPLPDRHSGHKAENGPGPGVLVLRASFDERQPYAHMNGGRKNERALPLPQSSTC
In short: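 Serum-starved Hek293 cells transduced with IGF1R or InsR were pre-incubated 1 h with 3-fold dilutions from 10 μM (0.1% DMSO), then stimulated 10 min with 1.0 ng/μL IGF or 5.0 ng/μL insulin. pTyr1135/1136 (pINSR Tyr1150/1151) was read by MSD capture ELISA, normalised to stimulated vs unstimulated window; IC50 from 4-parameter fit.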

Chain of COT1 (P41279 whole entry): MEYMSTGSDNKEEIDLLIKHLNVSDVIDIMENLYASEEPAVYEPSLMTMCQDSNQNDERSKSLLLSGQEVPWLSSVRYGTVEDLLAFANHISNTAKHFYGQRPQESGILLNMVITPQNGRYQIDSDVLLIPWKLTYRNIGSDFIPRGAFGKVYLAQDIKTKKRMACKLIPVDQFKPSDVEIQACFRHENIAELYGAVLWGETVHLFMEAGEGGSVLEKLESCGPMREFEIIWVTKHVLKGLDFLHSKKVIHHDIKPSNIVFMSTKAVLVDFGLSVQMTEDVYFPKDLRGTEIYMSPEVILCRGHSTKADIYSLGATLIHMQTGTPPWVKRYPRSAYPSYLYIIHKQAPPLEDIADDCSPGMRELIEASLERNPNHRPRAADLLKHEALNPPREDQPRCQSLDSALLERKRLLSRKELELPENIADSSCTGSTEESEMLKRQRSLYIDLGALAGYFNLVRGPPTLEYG

Row | SMILES | IC50 (COT1) | IC50 (FGFR-4) | IC50 (P38a) | IC50 (IGF1R)
1 | CC(=O)NC[C@H]1C[C@@H](n2cc(-c3ccc4c(c3)OC(c3ccccc3)CC4)c3c(N)ncnc32)C1 (mixture of isomers) [Example 16, (R,S)—N-{cis-3-[4-Amino-5-(2-phenyl-chroman-7-yl)-pyrrolo[2,3-d]pyrimidin-7-yl]-cyclobutylmethyl}-acetamide] | > 10000 nM | > 10000 nM | > 10000 nM | 0.022 µM
2 | Nc1ncnc2c1c(-c1ccc3c(c1)OC(c1ccccc1)CC3)cn2C1CC(O)(CO)C1 (single isomer, unassigned) [Example 26] | > 10000 nM | 8900 nM | > 10000 nM | 0.027 to 0.106 µM
3 | CC(=O)N1CCN([C@H]2C[C@@H](n3cc(-c4ccc5c(c4)OC(c4ccccc4)CC5)c4c(N)ncnc43)C2)CC1 (relative stereo) [Example 38, 1-(4-{cis-3-[4-Amino-5-(2-phenyl-chroman-7-yl)-pyrrolo[2,3-d]pyrimidin-7-yl]-cyclobutyl}-piperazin-1-yl)-ethanone] | > 10000 nM | > 10000 nM | > 10000 nM | 0.011 µM
4 | Nc1ncnc2c1c(-c1ccc3c(c1)OC(c1ccccc1)C=C3)cn2[C@H]1C[C@@H](CN2CCS(=O)(=O)CC2)C1 (mixture of isomers) [Example 21, (R,S)-7-[cis-3-(1,1-Dioxo-1-thiomorpholin-4-ylmethyl)-cyclobutyl]-5-(2-phenyl-2H-chromen-7-yl)-7H-pyrrolo[2,3-d]pyrimidin-4-ylamine] | > 10000 nM | > 10000 nM | > 10000 nM | 0.009 µM
